# Measured values: US9062124B2, “GIP-based mixed agonists for treatment of metabolic disorders and obesity” (priority 2008, dated 2015)
# pEC50: −log10 of the molar value. Where a SMILES comes first, the peptide text is derived from it. Bridges are numbered along the chain shown (N, C = ends). [ ]: non-standard residue; d: D form. Aib = CC(C)(N)C(=O)O
# Tests used:
# Assay type in all cases: cell-based
# glucagon receptor = target: T1, glucagon receptor (Homo sapiens, UniProt P47871); assay: cAMP synthesis functional assay (firefly luciferase reporter in HEK293 cells), glucagon receptor; conditions: for pEC50: Glucagon Receptor EC50, cAMP luciferase reporter assay as in Example 16
# T1 construct: expressed in transfected cells; host or cells: HEK293
# GLP-1 receptor = target: T2, GLP-1 receptor (Homo sapiens, UniProt P43220); assay: cAMP synthesis functional assay (firefly luciferase reporter in HEK293 cells), GLP-1 receptor; conditions: for pEC50: GLP-1 Receptor EC50, cAMP luciferase reporter assay as in Example 16
# T2 construct: expressed in transfected cells; host or cells: HEK293
# GIP receptor = target: T3, GIP receptor (Homo sapiens, UniProt P48546); assay: cAMP synthesis functional assay (firefly luciferase reporter in HEK293 cells), GIP receptor; conditions: for pEC50: GIP Receptor EC50, cAMP luciferase reporter assay as in Example 16
# T3 construct: expressed in transfected cells; host or cells: HEK293
# T3 sequence (P48546 22-466): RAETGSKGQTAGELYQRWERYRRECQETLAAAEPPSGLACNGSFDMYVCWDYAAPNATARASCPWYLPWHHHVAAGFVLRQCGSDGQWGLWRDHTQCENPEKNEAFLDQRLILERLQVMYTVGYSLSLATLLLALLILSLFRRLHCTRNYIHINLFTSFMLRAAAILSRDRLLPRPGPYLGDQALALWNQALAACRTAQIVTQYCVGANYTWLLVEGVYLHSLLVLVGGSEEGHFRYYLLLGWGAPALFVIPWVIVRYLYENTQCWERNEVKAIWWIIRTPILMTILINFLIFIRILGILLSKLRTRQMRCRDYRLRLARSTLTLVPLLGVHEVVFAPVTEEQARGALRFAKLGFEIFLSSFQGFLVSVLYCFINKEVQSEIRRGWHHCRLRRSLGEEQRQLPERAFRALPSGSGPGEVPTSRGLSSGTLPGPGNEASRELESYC
# [1] = test system: glucagon receptor, GLP-1 receptor or GIP receptor; assay: Agonist profile across receptors assigned from the cAMP reporter assay data; conditions: assigned from the in vitro EC50 data of Tables 1-4
# [2] = relative to the standard (Std.) EC50 of the same run
# [3] = Table 1, relative to the native hormone of the indicated receptor
# T1 sequence (P47871 26-477): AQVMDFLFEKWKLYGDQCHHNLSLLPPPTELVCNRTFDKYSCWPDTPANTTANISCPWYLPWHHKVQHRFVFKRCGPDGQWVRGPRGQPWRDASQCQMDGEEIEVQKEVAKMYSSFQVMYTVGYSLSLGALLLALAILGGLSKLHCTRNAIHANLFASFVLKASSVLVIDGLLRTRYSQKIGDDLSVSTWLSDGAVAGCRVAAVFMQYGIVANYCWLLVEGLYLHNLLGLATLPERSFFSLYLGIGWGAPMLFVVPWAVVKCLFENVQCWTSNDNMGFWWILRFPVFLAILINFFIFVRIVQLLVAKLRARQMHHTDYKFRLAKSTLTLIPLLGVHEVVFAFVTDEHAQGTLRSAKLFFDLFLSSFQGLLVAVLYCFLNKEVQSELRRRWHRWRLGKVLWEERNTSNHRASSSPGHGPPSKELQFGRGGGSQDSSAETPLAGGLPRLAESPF
# T2 sequence (P43220 24-463, species assumed): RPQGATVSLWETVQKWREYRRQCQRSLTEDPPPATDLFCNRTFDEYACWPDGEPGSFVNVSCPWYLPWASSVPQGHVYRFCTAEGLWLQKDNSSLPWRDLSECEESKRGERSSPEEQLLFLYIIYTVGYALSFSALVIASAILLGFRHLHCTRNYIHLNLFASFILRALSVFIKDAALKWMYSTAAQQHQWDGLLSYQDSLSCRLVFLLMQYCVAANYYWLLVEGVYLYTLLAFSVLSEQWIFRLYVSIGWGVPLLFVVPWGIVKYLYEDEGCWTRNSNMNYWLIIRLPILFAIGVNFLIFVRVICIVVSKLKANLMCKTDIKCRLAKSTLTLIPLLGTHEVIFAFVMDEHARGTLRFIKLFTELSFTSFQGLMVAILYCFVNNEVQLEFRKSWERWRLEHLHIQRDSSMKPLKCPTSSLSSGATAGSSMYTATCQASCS
Structure (SMILES),pEC50 (glucagon receptor),Glucagon Receptor relative activity (glucagon receptor; [2]) [%],pEC50 (GLP-1 receptor),GLP-1 Receptor relative activity (GLP-1 receptor; [2]) [%],pEC50 (GIP receptor),GIP Receptor relative activity (GIP receptor; [2]) [%],receptor activity profile (glucagon / GLP-1 / GIP agonism) [1],Glucagon Receptor relative activity (glucagon receptor; Table 2) [%],GLP-1 Receptor relative activity (GLP-1 receptor; Table 2) [%],GIP Receptor relative activity (GIP receptor; Table 2) [%],Glucagon Receptor relative activity (glucagon receptor; [3]) [%],GLP-1 Receptor relative activity (GLP-1 receptor; [3]) [%],GIP Receptor relative activity (GIP receptor; [3]) [%]
CCCCCCCCCCCCCCCCCC(=O)NCCCC[C@H](NC(=O)[C@@H](NC(=O)[C@H](Cc1ccccc1)NC(=O)[C@H](CCC(=O)O)NC(=O)C(C)(C)NC(=O)[C@H](C)NC(=O)[C@H](C)NC(=O)[C@H](CCC(N)=O)NC(=O)[C@H](CCCCN)NC(=O)[C@H](CC(=O)O)NC(=O)[C@H](CC(C)C)NC(=O)[C@H](Cc1ccc(O)cc1)NC(=O)[C@@H](NC(=O)[C@H](CO)NC(=O)[C@H](Cc1ccc(O)cc1)NC(=O)[C@H](CC(=O)O)NC(=O)[C@H](CO)NC(=O)[C@@H](NC(=O)[C@H](Cc1ccccc1)NC(=O)[C@@H](NC(=O)CNC(=O)[C@H](CCC(=O)O)NC(=O)C(C)(C)NC(=O)[C@@H](N)Cc1ccc(O)cc1)[C@@H](C)O)[C@@H](C)O)[C@@H](C)CC)C(C)C)C(=O)N[C@@H](Cc1c[nH]c2ccccc12)C(=O)N[C@@H](CC(C)C)C(=O)N[C@@H](CC(C)C)C(=O)N[C@@H](C)C(=O)NCC(=O)NCC(=O)N1CCC[C@H]1C(=O)N[C@@H](CO)C(=O)N[C@@H](CO)C(=O)NCC(=O)N[C@@H](C)C(=O)N1CCC[C@H]1C(=O)N1CCC[C@H]1C(=O)N1CCC[C@H]1C(=O)N[C@@H](CO)C(N)=O [mt-267],7.21,0.07,8.68,0.84,8.88,0.65,"exhibited activity at the GIP, GLP-1, and glucagon receptors",,,,,,
CC[C@H](C)[C@H](NC(=O)[C@H](CO)NC(=O)[C@H](Cc1ccc(O)cc1)NC(=O)[C@H](CC(=O)O)NC(=O)[C@H](CO)NC(=O)[C@@H](NC(=O)[C@H](Cc1ccccc1)NC(=O)[C@@H](NC(=O)CNC(=O)[C@H](CCC(N)=O)NC(=O)C(C)(C)NC(=O)[C@@H](N)Cc1ccc(O)cc1)[C@@H](C)O)[C@@H](C)O)C(=O)N[C@@H](Cc1ccc(O)cc1)C(=O)N[C@@H](CC(C)C)C(=O)N[C@@H](CC(=O)O)C(=O)NC(C)(C)C(=O)N[C@@H](CCC(N)=O)C(=O)N[C@@H](C)C(=O)N[C@@H](C)C(=O)NC(C)(C)C(=O)N[C@@H](CCC(=O)O)C(=O)N[C@@H](Cc1ccccc1)C(=O)N[C@H](C(=O)N[C@@H](CC(N)=O)C(=O)N[C@@H](Cc1c[nH]c2ccccc12)C(=O)N[C@@H](CC(C)C)C(=O)N[C@@H](CC(C)C)C(=O)N[C@@H](C)C(=O)NCC(=O)NCC(=O)N1CCC[C@H]1C(=O)N[C@@H](CO)C(=O)N[C@@H](CO)C(=O)NCC(=O)N[C@@H](C)C(=O)N1CCC[C@H]1C(=O)N1CCC[C@H]1C(=O)N1CCC[C@H]1C(=O)N[C@@H](CO)C(=O)N[C@@H](CS)C(N)=O)C(C)C [mt-250] (H-Y[Aib]QGTFTSDYSIYLD[Aib]QAA[Aib]EFVNWLLAGGPSSGAPPPSC-NH2; N-terminus assumed),,,,,,,exhibited activities of glucagon/GLP-1/GIP triagonists,6.30,63.64,30.65,,,
CC[C@H](C)[C@H](NC(=O)[C@H](CO)NC(=O)[C@H](Cc1ccc(O)cc1)NC(=O)[C@H](CC(=O)O)NC(=O)[C@H](CO)NC(=O)[C@@H](NC(=O)[C@H](Cc1ccccc1)NC(=O)[C@@H](NC(=O)CNC(=O)[C@H](CCC(N)=O)NC(=O)C(C)(C)NC(=O)[C@@H](N)Cc1ccc(O)cc1)[C@@H](C)O)[C@@H](C)O)C(=O)N[C@@H](Cc1ccc(O)cc1)C(=O)N[C@@H](CC(C)C)C(=O)N[C@@H](CC(=O)O)C(=O)N[C@H]1CCC(=O)NCCCC[C@@H](C(=O)N[C@@H](CCC(=O)O)C(=O)N[C@@H](Cc2ccccc2)C(=O)N[C@H](C(=O)N[C@@H](CC(N)=O)C(=O)N[C@@H](Cc2c[nH]c3ccccc23)C(=O)N[C@@H](CC(C)C)C(=O)N[C@@H](CC(C)C)C(=O)N[C@@H](C)C(=O)NCC(=O)NCC(=O)N2CCC[C@H]2C(=O)N[C@@H](CO)C(=O)N[C@@H](CO)C(=O)NCC(=O)N[C@@H](C)C(=O)N2CCC[C@H]2C(=O)N2CCC[C@H]2C(=O)N2CCC[C@H]2C(=O)N[C@@H](CO)C(N)=O)C(C)C)NC(=O)[C@H](C)NC(=O)[C@H](C)NC(=O)[C@H](CCC(N)=O)NC1=O [mt-152] (H-Y[Aib]QGTFTSDYSIYLDEQAAKEFVNWLLAGGPSSGAPPPS-NH2; lactam 16-20; N-terminus assumed),,,,,,,exemplary GLP-1/GIP/glucagon triagonist peptides,,,,36.52,168.75,41.19
CC[C@H](C)[C@H](NC(=O)[C@H](CO)NC(=O)[C@H](Cc1ccc(O)cc1)NC(=O)[C@H](CC(=O)O)NC(=O)[C@H](CO)NC(=O)[C@@H](NC(=O)[C@H](Cc1ccccc1)NC(=O)[C@@H](NC(=O)CNC(=O)[C@H](CCC(N)=O)NC(=O)C(C)(C)NC(=O)[C@@H](N)Cc1ccc(O)cc1)[C@@H](C)O)[C@@H](C)O)C(=O)N[C@@H](Cc1ccc(O)cc1)C(=O)N[C@@H](CC(C)C)C(=O)N[C@@H](CC(=O)O)C(=O)N[C@H]1CCC(=O)NCCCC[C@@H](C(=O)N[C@@H](CCC(=O)O)C(=O)N[C@@H](Cc2ccccc2)C(=O)N[C@H](C(=O)N[C@@H](CS)C(=O)N[C@@H](Cc2c[nH]c3ccccc23)C(=O)N[C@@H](CC(C)C)C(=O)N[C@@H](CC(C)C)C(=O)N[C@@H](C)C(=O)NCC(N)=O)C(C)C)NC(=O)[C@H](C)NC(=O)[C@H](C)NC(=O)[C@H](CCC(N)=O)NC1=O [mt-169] (H-Y[Aib]QGTFTSDYSIYLDEQAAKEFVCWLLAG-NH2; lactam 16-20; N-terminus assumed),,,,,,,exemplary GLP-1/GIP/glucagon triagonist peptides,,,,51.26,54.39,14.79
CCCCCCCCCCCCCCCCCC(=O)NCCCC[C@H](NC(=O)[C@H](CO)NC(=O)[C@@H]1CCCN1C(=O)[C@@H]1CCCN1C(=O)[C@@H]1CCCN1C(=O)[C@H](C)NC(=O)CNC(=O)[C@H](CO)NC(=O)[C@H](CO)NC(=O)[C@@H]1CCCN1C(=O)CNC(=O)CNC(=O)[C@H](C)NC(=O)[C@H](CC(C)C)NC(=O)[C@H](CC(C)C)NC(=O)[C@H](Cc1c[nH]c2ccccc12)NC(=O)[C@H](CS)NC(=O)[C@@H](NC(=O)[C@H](Cc1ccccc1)NC(=O)[C@H](CCC(=O)O)NC(=O)C(C)(C)NC(=O)[C@H](C)NC(=O)[C@H](C)NC(=O)[C@H](CCC(N)=O)NC(=O)[C@H](CCCCN)NC(=O)[C@H](CC(=O)O)NC(=O)[C@H](CC(C)C)NC(=O)[C@H](Cc1ccc(O)cc1)NC(=O)[C@@H](NC(=O)[C@H](CO)NC(=O)[C@H](Cc1ccc(O)cc1)NC(=O)[C@H](CC(=O)O)NC(=O)[C@H](CO)NC(=O)[C@@H](NC(=O)[C@H](Cc1ccccc1)NC(=O)[C@@H](NC(=O)CNC(=O)[C@H](CCC(=O)O)NC(=O)C(C)(C)NC(=O)[C@@H](N)Cc1ccc(O)cc1)[C@@H](C)O)[C@@H](C)O)[C@@H](C)CC)C(C)C)C(N)=O [mt-307],9.54,16.61,,113.29,,128.35,"exhibited activity at the GIP, GLP-1, and glucagon receptors",,,,,,
CCCCCCCCCCCCCC(=O)NCCCC[C@H](NC(=O)[C@@H](NC(=O)[C@H](Cc1ccccc1)NC(=O)[C@H](CCC(=O)O)NC(=O)C(C)(C)NC(=O)[C@H](C)NC(=O)[C@H](C)NC(=O)[C@H](CCC(N)=O)NC(=O)[C@H](CCCCN)NC(=O)[C@H](CC(=O)O)NC(=O)[C@H](CC(C)C)NC(=O)[C@H](Cc1ccc(O)cc1)NC(=O)[C@@H](NC(=O)[C@H](CO)NC(=O)[C@H](Cc1ccc(O)cc1)NC(=O)[C@H](CC(=O)O)NC(=O)[C@H](CO)NC(=O)[C@@H](NC(=O)[C@H](Cc1ccccc1)NC(=O)[C@@H](NC(=O)CNC(=O)[C@H](CCC(=O)O)NC(=O)C(C)(C)NC(=O)[C@@H](N)Cc1ccc(O)cc1)[C@@H](C)O)[C@@H](C)O)[C@@H](C)CC)C(C)C)C(=O)N[C@@H](Cc1c[nH]c2ccccc12)C(=O)N[C@@H](CC(C)C)C(=O)N[C@@H](CC(C)C)C(=O)N[C@@H](C)C(=O)NCC(=O)NCC(=O)N1CCC[C@H]1C(=O)N[C@@H](CO)C(=O)N[C@@H](CO)C(=O)NCC(=O)N[C@@H](C)C(=O)N1CCC[C@H]1C(=O)N1CCC[C@H]1C(=O)N1CCC[C@H]1C(=O)N[C@@H](CO)C(N)=O [mt-265],8.19,0.68,9.00,1.77,10.20,13.62,"exhibited activity at the GIP, GLP-1, and glucagon receptors",,,,,,
